Assay results taken from paper PMC8765781, “A platform of assays for the discovery of anti-Zika small-molecules with activity in a 3D-bioprinted outer-blood-retina model” (PLoS ONE, 2022).
Like-named read-outs stand apart in the source and are kept apart here. *1 amine or outer side, *2 acyl side, *3 side chain or, on linkers, in order; H or OH if unused. Where a SMILES comes first, the peptide text is derived from it. [ ]: non-standard residue; d: D form. The star is where a group is joined. ξ: configuration not given here. X2 = CCC(C)(N*)C(=O)C1CC[C@@H](C(=O)N[CH]Cc2ccccc2)N1; X1 = O=C([C@@H]1CC(O)CN1[*:1])[*:2]; aIle = CC[C@@H](C)[C@H](N)C(=O)O; Thr(3ξ) = CC(O)[C@H](N)C(=O)O; ξIva = CCC(C)(N)C(=O)O; Aib = CC(C)(N)C(=O)O

Key:
[1] = test system: DENV (Dengue virus type 2, strain New Guinea C)
[2] = test system: ZIKV
[3] = test system: WNV (Kern515/WN02)
[4] = test system: YFV (YFV 17D)
[5] = test system: wild-type ZIKV (Ugandan MR766 strain) in Vero cells; experiment: ZIKV cytopathic effect (CPE) inhibition qHTS assay, CellTiter-Glo readout; format: cell-based, Zika virus; conditions: for IC50: read-out: ZIKV-infection (CPE, ZIKV Antiviral Assays), IC50
[6] = test system: caspase-3 activity induced by ZIKV in Vero cells; experiment: cells; format: cell-based; conditions: read-out: Caspase 3 (ZIKV Antiviral Assays), IC50
[7] = test system: ZIKV-RLuc (Cambodian strain FSS13025); experiment: microbe, parasite or virus in culture; format: cell-based, Zika virus; conditions: for IC50: read-out: Rluc-ZIKV (ZIKV Antiviral Assays), IC50
[8] = test system: ZIKV-mCherry (Cambodian strain FSS13025); experiment: microbe, parasite or virus in culture; format: cell-based, Zika virus
[9] = in vitro; conditions: African green monkey
[10] = in vitro; conditions: human
[11] = test system: mCherry-ZIKV in human neuronal progenitor cells; experiment: microbe, parasite or virus in culture; format: cell-based, Zika virus
[12] = test system: Vero cells
[13] = Zika virus, Vero, read-out: Log AC50 (M) (converted)
[14] = Zika virus, Vero, from Hill fit of the response curve, 50% of maximum activity response, 194 cherry-picked compounds, protocol name not given, read-out: AC50
[15] = Zika virus, Vero, potency in log units (Molar) from Hill fit of the response curve, 194 cherry-picked compounds, protocol name not given, read-out: Log AC50 (converted)
[16] = Zika virus, Vero cells, wild-type ZIKV MOI 1, 48 hr, unit inferred
[17] = difference between neutral response and maximum compound response
[18] = Zika virus, ZIKV-infected Vero cells, 48 hr, unit inferred
[19] = curve class v2 (Inglese et al. 2006)

SMILES | DENV active Yes/No [1] | ZIKV active Yes/No [2] | WHV active Yes/No [3] | YFV active Yes/No [4] | Efficacy [5] | AC50 ([5]; Zika virus, Vero) | IC50 ([5]; Zika virus, Vero, 48 h) | AC50 [5, 13] | IC50 ([6]; Zika virus, Vero, 48 h) | IC50 ([7]; Zika virus, Vero, 48 h) | CC-v2 (curve class of the dose response curve) [8] | Efficacy (difference between neutral response and maximum compound response) [8] | Max Resp (difference between neutral response and response at highest compound concentration) [8] | AC50 ([8]; Zika virus, Vero) | AC50 [8, 13] | CC50 [10] | other results
CCN(CC)CCCC(C)Nc1ccnc2cc(Cl)ccc12 (stereo not shown) [NCGC00015256, chloroquine, reference compound] | No | No | No | No | – | – | – | – | – | – | – | – | – | – | – | – | SI value YFV (CC50/EC50) [4]: 1.2
O=C(O)Cc1cc(I)c(Oc2ccc(O)c(I)c2)c(I)c1 [NCGC00016227-08] | – | – | – | – | -29.653 | 2.91e-05 M | 29.1 µM | 2.91e-05 M | > 48 µM | 23.3 µM | -1.3 | -57.778 | -100.305 | 1.5e-05 M | 1.5e-05 M | > 30 µM | CC50 at 48 h [9]: > 50 µM
CS[C@H]1SC[C@@H]2C(=O)N(C)[C@H](C(C)C)C(=O)OC[C@H](NC(=O)c3cnc4ccccc4n3)C(=O)N[C@H](C)C(=O)N(C)[C@H]1C(=O)N(C)[C@H](C(C)C)C(=O)OC[C@H](NC(=O)c1cnc3ccccc3n1)C(=O)N[C@H](C)C(=O)N2C [NCGC00163548-03] | No | No | No | No | – | – | – | – | – | – | -1.1 | -108.47 | -100.29 | 2.99e-09 M | 2.99e-09 M | – | Antiviral activity in human NPC [11]: moderate antiviral activity
Cc1ccc2c(c1)Cc1c(C(=O)NN3CCCCC3)nn(-c3ccc(Cl)cc3Cl)c1-2 [NCGC00167846-01] | Yes | Yes | No | No | – | – | – | – | – | – | -1.3 | -70.543 | -100.29 | 6.7e-07 M | 6.7e-07 M | – | CC-v2 (curve class classification v2 of the dose response curve) [7]: -1.1; Efficacy (difference between neutral response and maximum compound response) [7]: -95.949; Max Resp (difference between neutral response and compound response for highest compound concentration) [7]: -99.943; AC50 ([7]; Zika virus, Vero): 4.14e-06 M; AC50 [7, 13]: 4.14e-06 M; Antiviral activity in human NPC [11]: effectively inhibited ZIKV in NPC cells; Efficacy [11]: -97.35; Max Resp [11]: -80.167; AC50 ([11]; Zika virus, Neuronal progenitor cell): 3.98e-05 M; AC50 ([11]; Zika virus, Neuronal progenitor cell, read-out: Log AC50 (M) (converted)): 3.98e-05 M; AC50 [12]: 4.14 µM; Log AC50 (M) [12]: -5.3827 M; Activity against DENV [1]: active against both DENV and ZIKV; SI value DENV (CC50/EC50) [1]: 16; Activity against ZIKV [2]: active against both DENV and ZIKV; SI value ZIKV (CC50/EC50) [2]: 31
CCC(C)C1NC(=O)C(C(C)=O)=C1O (stereo not shown) [NCGC00168879-02] | – | – | – | – | -73.15 | 2.11e-05 M | 21.1 µM | 2.11e-05 M | 3.82 µM | 12 µM | -1.2 | -63.104 | -99.611 | 2.17e-05 M | 2.17e-05 M | > 30 µM | CC-v2 (curve class classification of the dose response curve) [5]: -1.2; CC50 [9]: > 50 µM
COc1c(C(C)C)cc2c(c1O)[C@@]1(C(=O)O)CCCC(C)(C)C1CC2 (stereo partly shown) [NCGC00169945-03] | – | – | – | – | – | – | – | – | – | 16.1 µM | -2.3 | -78.993 | -100.305 | 1.47e-05 M | 1.47e-05 M | 12.5 µM | AC50 [5, 14]: 1.43e-05 M; AC50 [5, 15]: 1.43e-05 M; IC50 [5, 16]: 14.3 µM; Efficacy [5, 17]: -27.847; IC50 [6, 18]: 20.4 µM; CC50 at 48 h [9]: > 50 µM
CC1=C[C@H]2O[C@@H]3[C@H](O)C[C@](C)([C@@]2(CO)[C@H](O)C1=O)[C@]31CO1 [NCGC00180572-02, vomitoxin] | Yes | Yes | Yes | Yes | -38.561 | – | – | – | – | – | -1.1 | -87.951 | -98.582 | – | – | – | Log AC50 (M) [5]: -6.2862 M; Max Resp [5]: -28.893; AC50 ([5]; read-out: AC50): 5.17e-07 M; IC50 [5]: 0.52 µM; IC50 [6]: 0.74 µM; IC50 [7]: 0.74 µM; Log AC50 (M) [8]: -7.0741 M; AC50 ([8]; read-out: AC50): 8.43e-08 M; CC-v2 (curve class) [11]: -1.1; Efficacy [11]: -97.398; Log AC50 (M) [11]: -5.35 M; Max Resp [11]: -88.056; AC50 ([11]; read-out: AC50): 4.47e-06 M; IC50 ([11]; read-out: IC50 in NPC): 4.4 µM; IC50 ([11]; read-out: NPC (ZIKV Antiviral Assays), IC50): 4.47 µM
C=C(C)C1Cc2c(ccc3c2OCC(c2ccc(O)cc2O)C3)O1 (stereo not shown) [NCGC00347653-02] | – | – | – | – | -16.545 | 7.18e-08 M | 0.07 µM | – | 16.2 µM | 0.02 µM | 5 | 33.59 | -97.958 | – | – | > 30 µM | Curve class [5]: -3; AC50 ([5]; Zika virus, Vero, read-out: Log AC50 (converted)): 7.18e-08 M; Emax ([5]; Zika virus, Vero, read-out: Max response): -30.5%; CC50 at 48 h ([9]; Vero cells): > 50 µM
C[C@H]1CC[C@@]2(OC1)O[C@H]1CC3C4CC=C5C[C@H](O)C[C@@H](O[C@@H]6O[C@@H](C)[C@H](O)[C@@H](O)[C@H]6O[C@@H]6O[C@@H](C)[C@H](O)[C@@H](O)[C@H]6O)[C@]5(C)C4CC[C@]3(C)[C@H]1[C@@H]2C (stereo partly shown) [NCGC00380128-01, Ophiopogonin B] | – | – | – | – | – | – | – | – | – | 8.74 µM | -1.4 | -59.028 | -100.132 | – | – | > 30 µM | AC50 [5, 14]: 1.72e-05 M; AC50 [5, 15]: 1.72e-05 M; IC50 [5, 16]: 17.2 µM; CC-v2 (curve class classification of the dose response curve) [5, 19]: -2.2; Efficacy [5, 17]: -28.987; IC50 [6, 18]: > 48 µM; CC50 at 48 h [9]: > 50 µM
COc1ccc([C@H]2OC[C@H]3O[C@@H](O[C@H]4[C@@H]2NC[C@@H]4O)[C@H](O)[C@H]3O)cc1 [NCGC00380307-01] | – | – | – | – | -66.527 | 2.27e-05 M | 22.7 µM | 2.27e-05 M | 6.46 µM | 2.28 µM | -1.2 | -48.259 | -100.305 | 1.31e-07 M | 1.31e-07 M | > 30 µM | CC-v2 (curve class classification of the dose response curve) [5]: -1.2; CC50 at 48 h ([9]; Vero cells): > 50 µM
CC[C@@H](C)[C@H](NC(=O)C(C)(C)NC(=O)[C@H](CCC(N)=O)NC(=O)C(C)(CC)NC(=O)[C@H](Cc1c[nH]c2ccccc12)NC(C)=O)C(=O)N[C@H](C(=O)NC(C)(C)C(=O)N[C@@H](CC(C)C)C(=O)NC(C)(C)C(=O)N1CCC[C@H]1C(=O)N[C@@H](CCC(N)=O)C(=O)NC(C)(C)C(=O)N1CC(O)C[C@H]1C(=O)NC(C)(CC)C(=O)C1CC[C@@H](C(=O)N[CH]Cc2ccccc2)N1)C(C)O (stereo partly shown) [NCGC00385349-01] (Ac-W[ξIva]Q[Aib][aIle][Thr(3ξ)][Aib]L[Aib]PQ[Aib][X1]-X2) | – | – | – | – | -36.779 | 1e-05 M | 10 µM | 1e-05 M | > 48 µM | 4.52 µM | -1.4 | -52.827 | -100.29 | – | – | – | CC-v2 (curve class classification of the dose response curve) [5]: -3; CC50 [9]: > 50 µM
CCC/C=C/C(=O)O[C@H]1CC(C)(C)CC2[C@@]13[C@H](O)C[C@]1(C)[C@@]2(CCC2[C@@]4(C)CC[C@H](O[C@@H]5O[C@H](C(=O)O)[C@@H](O)[C@H](O[C@@H]6O[C@H](CO)[C@H](O)[C@H](O)[C@H]6O[C@@H]6O[C@@H](C)[C@H](O)[C@@H](O)[C@H]6O[C@@H]6OC[C@](O)(CO)[C@H]6O)[C@H]5O[C@@H]5O[C@H](CO)[C@H](O)[C@H](O)[C@H]5O)C(C)(C)C4CC[C@]21C)O[C@H]3O (stereo partly shown) [NCGC00385970-01] | – | – | – | – | – | – | – | – | – | 2.23 µM | -1.3 | -68.04 | -100.305 | 2.53e-06 M | 2.53e-06 M | – | AC50 [5, 14]: 3.09e-06 M; AC50 [5, 15]: 3.09e-06 M; IC50 [5, 16]: 3.09 µM; CC-v2 (curve class classification of the dose response curve) [5, 19]: -1.2; Efficacy [5, 17]: -40.513; IC50 [6, 18]: 0.5 µM; CC50 [9]: > 50 µM
